“Also recorded” adds a separate entry of the source.
How the values were obtained:
StAR protein = StAR protein expression in rat Leydig cells (Western blotting); assay type: cell-based; settings: Leydig cells treated for 24 hour, listed as synthetic peptide 2
[1] = system: immature rat Leydig cells and ovarian, prostate and liver cancer cell lines; experiment: DNA synthesis in Leydig cells and cancer cell lines (summary of FIGS. 8-10); assay type: cell-based
Experimental: (§1) Ovarian (HEY, SKA), prostate (DU145, PC3) and breast (MCF7) cancer cell lines were cultured and maintained using well-established culture procedures.
(§2) Immature rat Leydig cells and various cancer cell lines were starved for 48 hours before treatment. The cells were then treated with SIP, the polypeptide having the amino acid sequence identified as SEQ ID NO:2, LH, and EGF for 18 hours. The incubation media were collected (Leydig cells) and analyzed for total androgen production. ^3H-thymidine (1 μCi/ml) was added to the cells for further 4 hours incubation. Then the hot media were removed; ice-cold water was added to the cells which were lysed by sonication. The cell lysates were filterd through DE81 ion-exchanger filters. The filter membranes were then put in vials filled with scintillation fluid, and the radioactivity was measured by a Beckman β-counter.

[2] = system: tyrosine phosphorylation of Leydig cell proteins; experiment: Tyrosine phosphorylation of Leydig cell proteins (phospho-tyrosine immunoblot); assay type: cell-based, rat; settings: Leydig cells treated for 30 minutes; listed as synthetic peptide 2
Experimental: (§3) To determine the effects of SIP and EGF on activation of proteins involved in either MAP-kinase or PI3-kinase signaling pathway, immature Leydig cells were cultured in 6-well plates. The cells were washed and treated with SIP (50 μg/ml) or EGF (10 ng/ml) for 30 min in the presence or absence of inhibitors of MAPK-kinase (PD98059; 25 μM) or PI3-kinase (LY294002; 5 μM). The cells were washed twice with ice-cold phosphate-buffered saline and lysed in lysis buffer (Cell Signaling Technology, Beverly, Mass.) containing 20 mM Tris-HCl (pH 7.5), 150 mM NaCl, 1 mM Na2EDTA, 1 mM EGTA, 1% Triton, 2.5 mM sodium pyrophosphate, 1 mM β-glycerophosphate, 1 mM Na3VO4, 1 μg/ml leupeptin and 1× protease inhibitor cocktail (Calbiochem, San Diego, Calif.). Protein concentrations were determined by the Lowry HS assay using the Bio-Rad DCProtein Assay kit (Bio-Rad, Hercules, Calif.) according to the instruction provided by the manufacturer. Cell lysates were mixed with Lammeli's buffer (62.5 mM Tris, pH 6.8, 2% SDS, 5% β-mercaptoethanol and 10% glycerol), and individual samples (25 μg protein) were subjected to SDS-PAGE in 10% gels and transferred to PVDF membranes (Millipore). The membranes were blocked overnight at 4° C. in TBST (50 mM Tris, pH 7.5, containing 0.15M NaCl, 0.05% Tween-20 and 4% fat-free skimmed milk). […]

StAR mRNA = StAR mRNA expression in rat Leydig cells (RT-PCR); assay type: cell-based; settings: Leydig cells treated for 24 hour
Experimental: Total RNA was isolated from Leydig cells using TRIzol (Invitrogen, Carlsbad, Calif.) followed by chloroform extraction and isopropanol precipitation. Two micrograms of total RNA were reverse transcribed at 37° C. for 1 h in a reaction mixture containing 0.5 mM dNTP (Fisher Scientific), 400 U of M-MLV Reverse Transcriptase (Promega), 1×RT buffer, 0.5 mM dithiotreitol (Bio-Rad) and 0.5 μg of oligo dT (Promega). After incubation, the RT enzyme was heat inactivated at 70° C. for […] and the reaction cooled to 4° C. Four microliters of RT reactions were added to separate PCR reaction mixtures (total 10 μl) containing 0.1 mM dNTPs, (Fisher), 0.5 U Tag DNA polymerase (PGC Scientifics, Frederick, Md.), 1×PCR buffer with 3 mM MgC12 (Idaho Technology, Salt Lake City, Utah) and […] of the specific primers for the following genes: scavenger receptor B type 1 (SR-B1), cytochrome P450 cholesterol side-chain cleavage (P450scc), 3β-hydroxysteroid dehydrogenase (3β-HSD), 17 alpha-hydroxylase/C17-20 lyase (P450c17) and steroidogenic acute regulatory (StAR) protein. L19 (a ribosomal protein) primer pair was used as internal control. The following protocol was used in the Rapid Cycler thermal cycler (Idaho Technology): 94° C. for 15 s (initial denaturation), followed by 94° C. for 0 s, 60° C. for 0 s, 72° C. for 20 s for 35 cycles, and 72° C. for 30 s (final extension). […]

[3] = system: MAP-kinase signaling pathway (Ras, MEK, ERK); experiment: Activation of MAP-kinase signaling pathway in Leydig cells (activation specific immunoblots); assay type: cell-based, rat; settings: 30 minutes
Experimental: as §3

PI3-kinase/AKT pathway = experiment: Activation of PI3-kinase/AKT pathway in rat Leydig cells (activation specific antibodies); assay type: cell-based; settings: 30 min
Experimental: as §3

rat Leydig cells = experiment: Testosterone production by rat Leydig cells (radioimmunoassay); assay type: cell-based; settings: cultured 6, 24 or 48 hours; for testosterone production: radioimmunoassay
Experimental: Immature rat Leydig cells (ILC) were isolated from 10-day old rat testes and cultured with serum-free medium before treatment. Immature rats were sacrificed at 10 days of age, and the testes were removed Immature Leydig cells were isolated and cultured. The decapsulated testes were incubated for 5 min in culture medium containing 0.25 mg collagenase/ml (Type I, Sigma) in shaking water bath. The seminiferous tubules were allowed to settle at unit gravity for 5 min, and the supernatant containing the suspension of interstitial cells was removed. The supernatant was centrifuged at 90×g for 10 min, and the cell pellet was washed twice by re-suspension in fresh medium followed by centrifugation. The cell suspension was plated in 24-well tissue culture plates (Nunclon; Nunc, Roskilde, Denmark; 2×10^5 cells/well) or in 6-well plates (2×10^6 cells/well) depending upon the end point of the experiment. The cells were cultured at 37° C. in a humidified atmosphere of 5% CO2 and 95% air in serum-free medium. After 1 h, the immature Leydig cells were well attached to the surface of the culture plates, whereas contaminating cells (Sertoli cells, germ cells, precursor Leydig cells) were loosely attached. The cells were washed three times with medium to remove loosely attached cells. At this stage, the cell preparation contains more than 90% immature Leydig cells. Immature Leydig cells cultured in 24-well plates (2×10^5 cells/well) were treated with several doses of oLH for 48 h, and the conditioned media were analyzed for androgen content.
Immature Leydig cells were cultured for 18 h and treated with different concentrations of oLH, SIP and EGF. […] The incubation media were collected and analyzed for total androgens using a radioimmunoassay, as described previously (Dickson et al., 2002). […] All samples were analyzed in the same assay, and the intra-assay coefficient of variation was <10%.

[4] = system: human ovarian epithelial cancer (HEY) cells; experiment: Thymidine incorporation assay (DNA synthesis) in HEY cells; assay type: cell-based; settings: different doses of peptide
Experimental: as §1, §2

[5] = system: immature rat Leydig cells; experiment: Thymidine incorporation assay (DNA synthesis) in immature rat Leydig cells; assay type: cell-based; settings: 3H-thymidine incorporation
Experimental: Immature rat Leydig cells (ILC) were isolated from 10-day old rat testes and cultured with serum-free medium before treatment. Immature rats were sacrificed at 10 days of age, and the testes were removed Immature Leydig cells were isolated and cultured. The decapsulated testes were incubated for 5 min in culture medium containing 0.25 mg collagenase/ml (Type I, Sigma) in shaking water bath. The seminiferous tubules were allowed to settle at unit gravity for 5 min, and the supernatant containing the suspension of interstitial cells was removed. The supernatant was centrifuged at 90×g for 10 min, and the cell pellet was washed twice by re-suspension in fresh medium followed by centrifugation. […] Immature Leydig cells cultured in 24-well plates (2×10^5 cells/well) were treated with several doses of oLH for 48 h, and the conditioned media were analyzed for androgen content.
Immature rat Leydig cells and various cancer cell lines were starved for 48 hours before treatment. […] The incubation media were collected (Leydig cells) and analyzed for total androgen production. ^3H-thymidine (1 μCi/ml) was added to the cells for further 4 hours incubation. […] The filter membranes were then put in vials filled with scintillation fluid, and the radioactivity was measured by a Beckman β-counter.

Leydig cells = experiment: Effect of kinase inhibitors on SIP-stimulated DNA synthesis in Leydig cells; assay type: cell-based, rat; settings: PD98059 25 μM; LY294002 5 μM; with SIP
Experimental: as §2
Immature Leydig cells were cultured for 18 h and treated with different concentrations of oLH, SIP and EGF. For some experiments, the cells were treated with oLH or SIP for 18 h in the absence or presence of inhibitors of tyrosine kinase (Genistein; 10 uM), MAPK-kinase (PD98059; 25 μM), PI3-kinase (LY294002; 5 μM) or PKA (H89; 10 μM) to determine the intracellular signaling pathways involved in the effects of SIP on androgen production. The incubation media were collected and analyzed for total androgens using a radioimmunoassay, as described previously (Dickson et al., 2002). […] All samples were analyzed in the same assay, and the intra-assay coefficient of variation was <10%.

Compound	expression of StAR protein (StAR protein)	DNA synthesis in different cells [1]	tyrosine phosphorylation of cell proteins [2]	expression of StAR mRNA (StAR mRNA)	activation of MAP-kinase pathway (Ras, MEK, ERK1/ERK2 phosphorylation) [3]	activation of MAP-kinase pathway (Ras, MEK, ERK1/ERK2 phosphorylation) ([3]; listed as synthetic peptide 2)	activation of PI3-kinase/AKT pathway (AKT phosphorylation) (PI3-kinase/AKT pathway)	activation of PI3-kinase/AKT pathway (AKT phosphorylation) (PI3-kinase/AKT pathway; listed as synthetic peptide 2)	testosterone production compared with purified SIP (rat Leydig cells)	testosterone production (rat Leydig cells; listed as SEQ ID NO:2)	testosterone production (rat Leydig cells; listed as synthetic SIP peptide 2)	DNA synthesis [4]	DNA synthesis [5]	effect of inhibitor on SIP effects on DNA synthesis (Leydig cells)
DVNGGGATLPQPLYQTA [peptide 2]	stimulated the induction of StAR protein; also recorded: induce the expression of protein	significant stimulation of DNA synthesis	induces the phosphorylation of several proteins at tyrosine; also recorded: capable of binding to SIP receptors and initiating signaling cascade	induce the expression of StAR mRNA	activated	significant induction of phosphorylation	activated	significant induction of phosphorylation	not as high as those observed with purified SIP	significant stimulation of testosterone production	stimulation of testosterone production	capable of exerting mitogenic effects	capable of inducing proliferation of immature rat Leydig cells	
COc1cccc(-c2cc(=O)c3ccccc3o2)c1N [PD98059]														blocks the effects of SIP on DNA synthesis

— patent US20120258113A1, “SUSBSTANTIALLY PURE STEROIDOGENESIS INDUCING PEPTIDE AND USES THEREOF” (CLARK ATLANTA UNIVERSITY, priority 2006, published 2012)
